According to publication PMC7395062, “Multiparametric assessment of mitochondrial respiratory inhibition in HepG2 and RPTEC/TERT1 cells using a panel of mitochondrial targeting agrochemicals” (Archives of Toxicology, 2020):
Like-named read-outs stand apart in the source and are kept apart here.

What was measured:
[1] = test system: HepG2 cells; assay: Resazurin reduction viability assay, 2D HepG2; assay type: cell-based, human; settings: for Effect on resazurin reduction / viability: up to 10 µM, 24 h exposure; for Effect on resazurin reduction / viability / Statistical significance, Viability Glucose settings Resazurin: glucose
Protocol: (§1) The HepG2 cell line, a human hepatocellular carcinoma, was obtained from ATCC (American Type Culture Collection, Wesel, Germany). […] Cells were maintained at 37 °C in a 5% CO2 humidified atmosphere, fed every 2 to 3 days and passaged at approximately 80% confluence. […] For galactose experiments, the medium was refreshed 24 h before exposure with galactose-containing medium. […] Culture medium was refreshed every 3–4 days and the culture was maintained for 21 days prior to dosing.
(§2) The conversion of resazurin to fluorescent resorufin was measured in a plate reader at excitation/emission 540/590 nm.
(§3) All results are average of 2–3 independent experiments.

[2] = test system: CII/CIII (succinate dehydrogenase / cytochrome bc1 complex); assay type: cell-based, human; settings: permeabilised HepG2; sequential substrates/inhibitors
Protocol: The test compound is injected and OCR is measured. […] OCR is measured for the second time. […] A third and final OCR measurement is conducted.
Compounds were injected sequentially and OCR was measured twice. […] ETC inhibition is determined in decreased OCR.
as §3

[3] = test system: RPTEC/TERT1 cells; assay: Resazurin reduction viability assay, RPTEC/TERT1; assay type: cell-based, human; settings: for Statistical significance, Viability Galactose settings Resazurin / Statistical significance, Viability Glucose settings Resazurin: RPTEC/TERT1
Protocol: These cells were obtained under licence from Evercyte GmBH, Vienna Austria. […] For experiments, cells were plated in a required format plate, allowed to become contact-inhibited and fed 24 h prior to treatment exposure. For experiments in galactose condition, cells were fed 24 h prior to experiment with culture medium (custom made DMEM/F12, PromoCell) in which 5 mM glucose was replaced with 5 mM galactose (Merck, G5388).
as §2, §3

[4] = test system: HepG2 3D spheroids; assay: Cell death assay (PI staining) in 3D cultured HepG2 spheroids; assay type: cell-based, human; settings: for Effect of repeated exposure (5 × 24 h vs 1 × 24 h) on toxic sensitivity: 3D HepG2 spheroids; for EC50: Homo sapiens, HepG2, 24 h
Protocol: as §1
At day 21, the culture medium was replaced by fresh medium containing the compounds in the desired concentration. […] For the repeat exposure scenario, Hoechst was added to the 4th exposure and PI to the 5th exposure. […] The confocal imaging was performed using a Nikon TiE2000 with perfect focus system and XY-stage (Nikon, Amsterdam, The Netherlands). Quantification of the Hoechst and PI signal localization was performed using Nis Elements Analysis software. First, a max projection was created of all z-stacks. The overlapping areas between Hoechst and PI in the projection picture were assessed based on a manually curated intensity threshold. Finally, the fraction of spheroids positive for PI staining was determined.
as §3

[5] = molecular target: NADH dehydrogenase (Complex I, CI) (Homo sapiens, UniProt O75251+O75306+P03886)
Protocol: The mitochondrial complex assay uses real-time OCR measurement with sequential addition of specific complex substrates and/or inhibitors to identify the complex within the ETC that is inhibited. […] In the first step, cultured cells are permeabilised and provided with CI substrates. The test compound is injected and OCR is measured. […] OCR is measured for the second time. In the third step, Antimycin A together with ascorbate and tetramethyl phenylenediamine (TMPD) is added to simultaneously block CIII and supply CIV. A third and final OCR measurement is conducted.
The following day, cells were washed once in mitochondrial assay solution (MAS), containing 220 mM mannitol (Sigma, M9647), 70 mM sucrose (Sigma, S7903), 10 mM potassium phosphate (Sigma, P5655), 5 mM magnesium chloride (Sigma, M8266), 3 mM HEPES (Sigma, H0887) and 1 mM EGTA (Sigma, E4378) with 0.2% fatty acid-free BSA (Sigma, A8806). […] Each measurement consisted of a thirty second mix and two-minute read cycle. Compounds were injected sequentially and OCR was measured twice. […] Complex inhibition was determined using the second OCR measurement after compound/vehicle injection, normalised to the baseline OCR measurements prior to compound addition. ETC inhibition is determined in decreased OCR. CI inhibition is confirmed if the inhibited OCR by injection A can be rescued after injection B. CII inhibition is determined if there is no inhibition after A, but inhibition after B. CIII inhibition is determined if there is inhibition after A and B, with recovery after C. OCR inhibition after injection C indicates effects downstream of CIII.
All results are average of 2–3 independent experiments. Each independent experiment is referred to as biological replicate and includes at least two technical replicates. […] Variation in all performed assays was calculated and represented as standard deviation (SD). Curves were fit using the non-liner regression four-parameter Hill model.

[6] = read-out: EC50 cell death 3D HepG2, 1 × 24 h exposure
[7] = read-out: EC50 cell death 3D HepG2, 5 × 24 h exposure

Sequence of NADH dehydrogenase (Complex I, CI) (O75251 39-213): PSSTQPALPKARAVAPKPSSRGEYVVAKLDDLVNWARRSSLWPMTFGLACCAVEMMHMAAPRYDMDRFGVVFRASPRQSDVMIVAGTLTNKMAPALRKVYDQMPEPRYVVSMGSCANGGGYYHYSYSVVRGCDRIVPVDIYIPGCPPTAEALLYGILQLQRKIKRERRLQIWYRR
Sequence of NADH dehydrogenase (Complex I, CI) (P03886 whole entry): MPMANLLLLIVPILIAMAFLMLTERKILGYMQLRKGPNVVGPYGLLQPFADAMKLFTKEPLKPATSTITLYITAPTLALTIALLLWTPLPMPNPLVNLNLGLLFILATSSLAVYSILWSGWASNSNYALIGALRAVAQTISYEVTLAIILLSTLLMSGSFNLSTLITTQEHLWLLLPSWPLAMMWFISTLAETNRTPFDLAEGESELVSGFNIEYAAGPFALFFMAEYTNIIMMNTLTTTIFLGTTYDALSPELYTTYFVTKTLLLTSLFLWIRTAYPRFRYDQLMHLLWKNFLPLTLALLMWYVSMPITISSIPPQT
Sequence of NADH dehydrogenase (Complex I, CI) (O75306 34-463): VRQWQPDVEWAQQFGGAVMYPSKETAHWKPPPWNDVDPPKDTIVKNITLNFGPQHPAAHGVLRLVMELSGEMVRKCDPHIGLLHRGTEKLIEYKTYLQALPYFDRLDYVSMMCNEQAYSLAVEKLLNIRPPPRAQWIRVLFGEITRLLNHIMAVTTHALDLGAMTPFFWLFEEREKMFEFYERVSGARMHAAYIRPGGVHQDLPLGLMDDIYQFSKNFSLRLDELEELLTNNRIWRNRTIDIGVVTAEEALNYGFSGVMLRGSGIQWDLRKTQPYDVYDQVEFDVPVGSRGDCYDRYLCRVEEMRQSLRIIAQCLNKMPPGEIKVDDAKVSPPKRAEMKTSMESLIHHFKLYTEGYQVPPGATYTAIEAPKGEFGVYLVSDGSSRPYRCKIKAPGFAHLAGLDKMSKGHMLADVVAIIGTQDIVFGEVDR

Compound	Statistical significance, Viability Galactose settings Resazurin ([1]; HepG2, galactose, e = 0.08 µM)	Statistical significance, Viability Galactose settings Resazurin ([1]; HepG2, galactose, f = 0.4 µM)	Statistical significance, Viability Galactose settings Resazurin ([1]; HepG2, galactose, g = 7 µM)	Statistical significance, Viability Galactose settings Resazurin ([1]; HepG2, galactose, h = 10 µM)	ETC-complex specificity pattern (CII/CIII) [2]	Statistical significance, Viability Galactose settings Resazurin ([3]; g = 7 µM)	Statistical significance, Viability Galactose settings Resazurin ([3]; h = 10 µM)	Statistical significance, Viability Glucose settings Resazurin ([3]; glucose, g = 7 µM)	Statistical significance, Viability Glucose settings Resazurin ([3]; glucose, h = 10 µM)	other results
CCCCCC[C@H]1C(=O)O[C@H](C)[C@H](NC(=O)c2cccc(NC=O)c2O)C(=O)O[C@@H](C)[C@@H]1OC(=O)CC(C)C [Antimycin A]	* (*p < 0.05 (Tables 3, 4))	* (*p < 0.05 (Tables 3, 4))	* (*p < 0.05 (Tables 3, 4))	* (*p < 0.05 (Tables 3, 4))	conformed to this pattern	* (*p < 0.05 (Tables 3, 4))	* (*p < 0.05 (Tables 3, 4))	* (*p < 0.05 (Tables 3, 4))	* (*p < 0.05 (Tables 3, 4))	Statistical significance, Viability Galactose settings Resazurin ([1]; HepG2, galactose, d = 0.016 µM): * (*p < 0.05 (Tables 3, 4)); Statistical significance, Viability Galactose settings Resazurin ([3]; e = 0.08 µM): * (*p < 0.05 (Tables 3, 4)); Statistical significance, Viability Galactose settings Resazurin ([3]; f = 0.4 µM): * (*p < 0.05 (Tables 3, 4)); Effect of repeated exposure (5 × 24 h vs 1 × 24 h) on toxic sensitivity [4]: increased the toxic sensitivity; EC50 [4, 6]: > 10000 nM; EC50 [4, 7]: 74 nM
CO/C=C(/C(=O)OC)c1ccccc1Oc1cc(Oc2ccccc2C#N)ncn1 [Azoxystrobin]	–	–	* (*p < 0.05 (Tables 3, 4))	* (*p < 0.05 (Tables 3, 4))	only partially rescued with ascorbate/TMPD	* (*p < 0.05 (Tables 3, 4))	* (*p < 0.05 (Tables 3, 4))	–	* (*p < 0.05 (Tables 3, 4))	–
COc1cc(CNC(=O)CCCC/C=C/C(C)C)ccc1O [Capsaicin]	–	–	–	–	–	–	–	–	* (*p < 0.05 (Tables 3, 4))	Effect on resazurin reduction / viability [1]: did not affect resazurin reduction; LOEL, CI inhibition in mitochondrial complex assay ([5]; permeabilised HepG2): 50 µM; ETC-complex specificity pattern (CI) ([5]; permeabilised HepG2, OCR inhibition after injection, recovery with succinate): expected CI-specificity pattern; Effect on resazurin reduction ([3]; up to 10 µM, 24 h exposure, glucose): did not affect resazurin reduction
COc1cc2c(cc1OC)[C@@H]1C(=O)c3ccc4c(c3O[C@@H]1CO2)C=CC(C)(C)O4 [Deguelin]	–	* (*p < 0.05 (Tables 3, 4))	* (*p < 0.05 (Tables 3, 4))	* (*p < 0.05 (Tables 3, 4))	–	* (*p < 0.05 (Tables 3, 4))	* (*p < 0.05 (Tables 3, 4))	* (*p < 0.05 (Tables 3, 4))	* (*p < 0.05 (Tables 3, 4))	OCR basal - Permeabilised cells Measurement 1 statistical significance [5]: * (*p < 0.05); Statistical significance, Viability Galactose settings Resazurin ([3]; f = 0.4 µM): * (*p < 0.05 (Tables 3, 4))
CSC1=N[C@@](C)(c2ccccc2)C(=O)N1Nc1ccccc1 [Fenamidone]	–	–	–	* (*p < 0.05 (Tables 3, 4))	only partially rescued with ascorbate/TMPD	–	–	–	–	–
CC(C)(C)c1ccc(CCOc2ncnc3ccccc23)cc1 [Fenazaquin]	* (*p < 0.05 (Tables 3, 4))	* (*p < 0.05 (Tables 3, 4))	* (*p < 0.05 (Tables 3, 4))	* (*p < 0.05 (Tables 3, 4))	–	–	–	* (*p < 0.05 (Tables 3, 4))	* (*p < 0.05 (Tables 3, 4))	–
CO/N=C(/C(=O)OC)c1ccccc1COc1ccccc1C [Kresoxim-methyl]	–	–	–	–	–	–	–	–	–	Statistical significance, Viability Galactose settings Resazurin [1]: * (key: *p < 0.05 (Tables 3, 4))
CO/C=C(/C(=O)OC)c1ccccc1COc1cccc(C(F)(F)F)n1 [Picoxystrobin]	–	* (*p < 0.05 (Tables 3, 4))	* (*p < 0.05 (Tables 3, 4))	* (*p < 0.05 (Tables 3, 4))	conformed to this pattern	* (*p < 0.05 (Tables 3, 4))	* (*p < 0.05 (Tables 3, 4))	–	* (*p < 0.05 (Tables 3, 4))	Effect of repeated exposure (5 × 24 h vs 1 × 24 h) on toxic sensitivity [4]: increased the toxic sensitivity
COC(=O)N(OC)c1ccccc1COc1ccn(-c2ccc(Cl)cc2)n1 [Pyraclostrobin]	–	* (*p < 0.05 (Tables 3, 4))	* (*p < 0.05 (Tables 3, 4))	* (*p < 0.05 (Tables 3, 4))	conformed to this pattern	* (*p < 0.05 (Tables 3, 4))	* (*p < 0.05 (Tables 3, 4))	* (*p < 0.05 (Tables 3, 4))	* (*p < 0.05 (Tables 3, 4))	Statistical significance, Viability Glucose settings Resazurin ([1]; HepG2, h = 10 µM): * (*p < 0.05 (Tables 3, 4)); Statistical significance, Viability Galactose settings Resazurin ([3]; f = 0.4 µM): * (*p < 0.05 (Tables 3, 4)); Effect of repeated exposure (5 × 24 h vs 1 × 24 h) on toxic sensitivity [4]: increased the toxic sensitivity
CC(C)(C)c1ccc(CSc2cnn(C(C)(C)C)c(=O)c2Cl)cc1 [Pyridaben]	* (*p < 0.05 (Tables 3, 4))	* (*p < 0.05 (Tables 3, 4))	* (*p < 0.05 (Tables 3, 4))	* (*p < 0.05 (Tables 3, 4))	–	–	–	* (*p < 0.05 (Tables 3, 4))	* (*p < 0.05 (Tables 3, 4))	Statistical significance, Viability Galactose settings Resazurin ([1]; HepG2, galactose, d = 0.016 µM): * (*p < 0.05 (Tables 3, 4)); Statistical significance, Viability Glucose settings Resazurin ([3]; glucose, f = 0.4 µM): * (*p < 0.05 (Tables 3, 4))
CCOCCc1ccc(OCCN=c2[nH]cnc(CC)c2Cl)c(C)c1C [Pyrimidifen]	* (*p < 0.05 (Tables 3, 4))	* (*p < 0.05 (Tables 3, 4))	* (*p < 0.05 (Tables 3, 4))	* (*p < 0.05 (Tables 3, 4))	–	–	–	* (*p < 0.05 (Tables 3, 4))	* (*p < 0.05 (Tables 3, 4))	Statistical significance, Viability Galactose settings Resazurin ([1]; HepG2, galactose, d = 0.016 µM): * (*p < 0.05 (Tables 3, 4))
C=C(C)[C@H]1Cc2c(ccc3c2O[C@@H]2COc4cc(OC)c(OC)cc4[C@@H]2C3=O)O1 [Rotenone]	–	–	–	–	–	–	–	–	–	Effect on resazurin reduction / viability [1]: mildly affected the viability; EC50 [4, 6]: 127 nM; EC50 [4, 7]: 28 nM
CCc1nn(C)c(C(=O)NCc2ccc(C(C)(C)C)cc2)c1Cl [Tebufenpyrad]	* (*p < 0.05 (Tables 3, 4))	* (*p < 0.05 (Tables 3, 4))	* (*p < 0.05 (Tables 3, 4))	* (*p < 0.05 (Tables 3, 4))	–	–	–	* (*p < 0.05 (Tables 3, 4))	* (*p < 0.05 (Tables 3, 4))	Statistical significance, Viability Glucose settings Resazurin ([1]; HepG2, h = 10 µM): * (*p < 0.05 (Tables 3, 4)); Effect of repeated exposure (5 × 24 h vs 1 × 24 h) on toxic sensitivity [4]: increased the toxic sensitivity
CON=C(C(=O)OC)c1ccccc1CON=C(C)c1cccc(C(F)(F)F)c1 [Trifloxystrobin]	–	* (*p < 0.05 (Tables 3, 4))	* (*p < 0.05 (Tables 3, 4))	* (*p < 0.05 (Tables 3, 4))	conformed to this pattern	–	–	–	* (*p < 0.05 (Tables 3, 4))	–
